As a reminder, the AC50 is the concentration at which the activity in the assay is half-maximal. Read a high AC50 as weaker potency.

Results on nine compounds are retold here after ChEMBL document CHEMBL5291721, “A preclinical secondary pharmacology resource illuminates target-adverse drug reaction associations of marketed drugs” (Nat Commun, 2023).

Targets include Vasopressin V2 receptor (Homo sapiens, UniProt P30518); Adenosine receptor A2a (Homo sapiens, UniProt P29274); Histamine H1 receptor (Homo sapiens, UniProt P35367).
The next test deals with T1, B2 bradykinin receptor (Homo sapiens, UniProt P30411).
T1 sequence (P30411 whole entry): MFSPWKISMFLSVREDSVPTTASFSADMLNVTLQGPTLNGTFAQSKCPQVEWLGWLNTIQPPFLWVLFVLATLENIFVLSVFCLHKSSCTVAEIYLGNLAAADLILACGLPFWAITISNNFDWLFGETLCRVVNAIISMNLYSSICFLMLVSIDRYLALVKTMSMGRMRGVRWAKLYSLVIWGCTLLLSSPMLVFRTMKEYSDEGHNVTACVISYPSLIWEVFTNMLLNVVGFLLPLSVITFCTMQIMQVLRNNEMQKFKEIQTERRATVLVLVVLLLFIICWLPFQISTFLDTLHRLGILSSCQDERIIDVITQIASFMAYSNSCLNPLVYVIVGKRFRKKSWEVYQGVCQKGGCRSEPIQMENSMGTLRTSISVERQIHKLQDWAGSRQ

Test [1] addresses 5-hydroxytryptamine receptor 2B (Homo sapiens, UniProt P41595). The class given is functional, cell-based.
For test [2], the target named is T2, Muscarinic acetylcholine receptor M2 (Homo sapiens, UniProt P08172).
T2 sequence (P08172 whole entry): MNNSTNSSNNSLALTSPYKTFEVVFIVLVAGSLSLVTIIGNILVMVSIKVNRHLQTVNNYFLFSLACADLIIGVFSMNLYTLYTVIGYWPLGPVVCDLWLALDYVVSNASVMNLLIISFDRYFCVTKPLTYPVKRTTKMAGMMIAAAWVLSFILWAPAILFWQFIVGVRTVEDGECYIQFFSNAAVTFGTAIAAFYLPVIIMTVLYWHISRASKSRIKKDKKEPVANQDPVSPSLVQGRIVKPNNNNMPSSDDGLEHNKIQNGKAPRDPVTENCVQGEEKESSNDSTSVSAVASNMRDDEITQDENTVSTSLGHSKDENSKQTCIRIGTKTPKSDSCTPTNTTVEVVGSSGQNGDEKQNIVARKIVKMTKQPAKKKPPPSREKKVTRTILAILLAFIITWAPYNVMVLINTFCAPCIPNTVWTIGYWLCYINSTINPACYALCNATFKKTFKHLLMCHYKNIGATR
Format: functional, cell-based.

Test [3] deals with T3, Alpha-2A adrenergic receptor (Homo sapiens, UniProt P08913).
T3 sequence (P08913 whole entry): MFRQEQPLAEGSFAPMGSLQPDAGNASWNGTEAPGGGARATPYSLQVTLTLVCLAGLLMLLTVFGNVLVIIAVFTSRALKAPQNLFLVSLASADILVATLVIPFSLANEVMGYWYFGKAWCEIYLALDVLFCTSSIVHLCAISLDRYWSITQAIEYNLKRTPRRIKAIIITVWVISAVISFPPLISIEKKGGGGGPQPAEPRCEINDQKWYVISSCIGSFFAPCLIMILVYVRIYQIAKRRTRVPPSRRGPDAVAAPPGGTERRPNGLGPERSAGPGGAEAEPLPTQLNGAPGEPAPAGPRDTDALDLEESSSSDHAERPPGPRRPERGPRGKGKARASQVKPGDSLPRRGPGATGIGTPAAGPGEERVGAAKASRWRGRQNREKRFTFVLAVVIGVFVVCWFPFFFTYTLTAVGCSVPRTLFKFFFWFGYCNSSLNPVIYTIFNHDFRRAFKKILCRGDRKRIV
The class given is functional, cell-based.

The target in test [4] is Sodium-dependent serotonin transporter (Homo sapiens, UniProt P31645).
Test [5] concerns the target T2, Muscarinic acetylcholine receptor M2. Format: functional, cell-based. This is another data set of the same source.
The target in test [6] is Beta-2 adrenergic receptor (Homo sapiens, UniProt P07550).
The target in test [7] is Gamma-aminobutyric acid receptor subunit alpha-1 (Rattus norvegicus, UniProt P62813).
Test [8] concerns the target T4, Prostaglandin G/H synthase 1 (Rattus norvegicus, UniProt Q63921).
T4 sequence (Q63921 whole entry): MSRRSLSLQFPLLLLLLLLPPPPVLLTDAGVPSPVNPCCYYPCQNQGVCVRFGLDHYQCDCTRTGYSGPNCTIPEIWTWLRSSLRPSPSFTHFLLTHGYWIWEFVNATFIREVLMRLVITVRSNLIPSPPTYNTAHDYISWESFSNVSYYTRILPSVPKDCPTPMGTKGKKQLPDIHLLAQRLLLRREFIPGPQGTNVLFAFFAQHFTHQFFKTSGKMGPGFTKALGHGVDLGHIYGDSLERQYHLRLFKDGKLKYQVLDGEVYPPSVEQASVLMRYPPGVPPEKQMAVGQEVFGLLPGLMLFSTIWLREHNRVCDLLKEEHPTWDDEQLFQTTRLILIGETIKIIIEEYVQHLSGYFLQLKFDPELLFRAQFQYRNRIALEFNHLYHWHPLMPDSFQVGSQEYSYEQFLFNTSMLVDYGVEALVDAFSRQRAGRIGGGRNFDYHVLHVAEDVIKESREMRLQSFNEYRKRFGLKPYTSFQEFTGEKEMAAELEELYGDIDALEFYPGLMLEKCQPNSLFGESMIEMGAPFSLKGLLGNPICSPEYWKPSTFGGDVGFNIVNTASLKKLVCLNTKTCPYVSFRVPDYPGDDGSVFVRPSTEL
Format: functional.

For test [9], the target named is T5, Equilibrative nucleoside transporter 1 (Homo sapiens, UniProt Q99808).
T5 sequence (Q99808 whole entry): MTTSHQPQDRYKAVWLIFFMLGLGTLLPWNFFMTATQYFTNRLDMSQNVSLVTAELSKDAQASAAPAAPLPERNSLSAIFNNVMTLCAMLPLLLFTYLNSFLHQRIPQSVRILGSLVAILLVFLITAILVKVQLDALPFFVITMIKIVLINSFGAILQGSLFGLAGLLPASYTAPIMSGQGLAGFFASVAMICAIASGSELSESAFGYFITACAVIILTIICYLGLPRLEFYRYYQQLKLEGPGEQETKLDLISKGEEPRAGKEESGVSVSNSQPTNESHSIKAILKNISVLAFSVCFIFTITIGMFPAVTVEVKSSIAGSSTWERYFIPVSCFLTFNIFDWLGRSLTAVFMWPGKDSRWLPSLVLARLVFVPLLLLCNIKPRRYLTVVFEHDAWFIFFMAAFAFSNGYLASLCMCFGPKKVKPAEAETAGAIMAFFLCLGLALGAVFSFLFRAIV

The target of test [10] is 5-hydroxytryptamine receptor 2A (Homo sapiens, UniProt P28223). Format: functional, cell-based.
Note: assay procedure not described here.

Beta-2 adrenergic receptor, sequence (P07550 whole entry): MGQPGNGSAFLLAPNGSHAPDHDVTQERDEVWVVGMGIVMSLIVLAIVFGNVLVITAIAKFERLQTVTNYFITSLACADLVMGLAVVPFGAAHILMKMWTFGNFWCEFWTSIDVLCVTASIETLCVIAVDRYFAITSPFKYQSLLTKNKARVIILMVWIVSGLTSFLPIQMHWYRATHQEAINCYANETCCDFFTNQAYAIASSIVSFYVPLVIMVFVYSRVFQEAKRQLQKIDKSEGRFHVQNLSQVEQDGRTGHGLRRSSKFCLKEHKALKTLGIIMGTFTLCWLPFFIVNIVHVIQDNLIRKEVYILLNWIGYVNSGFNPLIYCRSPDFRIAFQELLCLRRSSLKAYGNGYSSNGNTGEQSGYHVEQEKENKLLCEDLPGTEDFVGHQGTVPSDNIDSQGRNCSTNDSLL
Gamma-aminobutyric acid receptor subunit alpha-1, sequence (P62813 whole entry): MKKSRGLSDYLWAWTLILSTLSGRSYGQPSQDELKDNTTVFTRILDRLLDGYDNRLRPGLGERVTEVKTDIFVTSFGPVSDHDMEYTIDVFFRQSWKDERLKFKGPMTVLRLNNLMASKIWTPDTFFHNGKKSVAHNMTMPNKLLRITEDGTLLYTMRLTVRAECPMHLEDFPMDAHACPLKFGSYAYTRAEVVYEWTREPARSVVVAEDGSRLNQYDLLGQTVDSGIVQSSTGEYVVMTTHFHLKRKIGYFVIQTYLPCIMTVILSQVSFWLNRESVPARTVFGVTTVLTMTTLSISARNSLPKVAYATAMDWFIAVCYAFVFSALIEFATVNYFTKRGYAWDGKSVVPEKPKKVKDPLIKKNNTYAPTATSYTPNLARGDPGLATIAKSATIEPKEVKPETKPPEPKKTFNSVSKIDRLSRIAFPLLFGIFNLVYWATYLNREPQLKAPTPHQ
Adenosine receptor A2a, sequence (P29274 whole entry): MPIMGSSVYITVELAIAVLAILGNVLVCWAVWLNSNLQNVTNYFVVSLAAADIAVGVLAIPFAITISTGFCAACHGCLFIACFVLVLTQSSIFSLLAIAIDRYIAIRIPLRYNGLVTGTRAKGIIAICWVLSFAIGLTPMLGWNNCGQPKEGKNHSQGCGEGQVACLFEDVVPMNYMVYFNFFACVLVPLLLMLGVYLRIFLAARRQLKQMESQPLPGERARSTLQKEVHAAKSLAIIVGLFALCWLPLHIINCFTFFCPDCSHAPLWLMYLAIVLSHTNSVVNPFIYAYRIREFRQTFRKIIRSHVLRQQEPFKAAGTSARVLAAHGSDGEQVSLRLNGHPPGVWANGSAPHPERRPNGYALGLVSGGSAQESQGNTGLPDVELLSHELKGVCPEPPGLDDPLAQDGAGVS
Histamine H1 receptor, sequence (P35367 whole entry): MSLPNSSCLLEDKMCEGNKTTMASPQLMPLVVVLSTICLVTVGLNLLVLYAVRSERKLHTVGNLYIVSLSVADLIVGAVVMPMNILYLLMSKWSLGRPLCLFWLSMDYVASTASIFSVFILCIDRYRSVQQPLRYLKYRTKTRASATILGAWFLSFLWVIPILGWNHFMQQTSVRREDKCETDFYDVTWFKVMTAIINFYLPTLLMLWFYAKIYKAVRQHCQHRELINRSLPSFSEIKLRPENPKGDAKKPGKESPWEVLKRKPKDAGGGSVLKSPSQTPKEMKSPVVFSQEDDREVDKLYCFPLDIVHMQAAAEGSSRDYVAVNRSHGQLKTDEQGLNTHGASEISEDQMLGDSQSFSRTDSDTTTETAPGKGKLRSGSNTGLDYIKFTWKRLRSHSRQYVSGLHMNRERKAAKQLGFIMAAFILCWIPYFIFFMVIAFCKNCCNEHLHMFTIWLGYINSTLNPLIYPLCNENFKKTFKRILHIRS
5-hydroxytryptamine receptor 2B, sequence (P41595 whole entry): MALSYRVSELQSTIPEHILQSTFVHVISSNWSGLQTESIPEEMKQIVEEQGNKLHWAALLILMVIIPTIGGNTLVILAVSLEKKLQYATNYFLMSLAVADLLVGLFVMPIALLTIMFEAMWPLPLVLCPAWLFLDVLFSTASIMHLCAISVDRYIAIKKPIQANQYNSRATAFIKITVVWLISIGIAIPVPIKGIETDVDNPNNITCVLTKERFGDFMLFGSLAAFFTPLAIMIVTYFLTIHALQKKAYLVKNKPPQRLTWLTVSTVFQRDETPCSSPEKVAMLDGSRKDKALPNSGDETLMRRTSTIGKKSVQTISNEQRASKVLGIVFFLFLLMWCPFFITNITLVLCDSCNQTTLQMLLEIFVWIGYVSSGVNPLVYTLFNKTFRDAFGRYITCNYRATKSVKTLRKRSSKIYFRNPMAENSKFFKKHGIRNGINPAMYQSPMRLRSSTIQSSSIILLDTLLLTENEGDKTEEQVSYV
Vasopressin V2 receptor, sequence (P30518 whole entry): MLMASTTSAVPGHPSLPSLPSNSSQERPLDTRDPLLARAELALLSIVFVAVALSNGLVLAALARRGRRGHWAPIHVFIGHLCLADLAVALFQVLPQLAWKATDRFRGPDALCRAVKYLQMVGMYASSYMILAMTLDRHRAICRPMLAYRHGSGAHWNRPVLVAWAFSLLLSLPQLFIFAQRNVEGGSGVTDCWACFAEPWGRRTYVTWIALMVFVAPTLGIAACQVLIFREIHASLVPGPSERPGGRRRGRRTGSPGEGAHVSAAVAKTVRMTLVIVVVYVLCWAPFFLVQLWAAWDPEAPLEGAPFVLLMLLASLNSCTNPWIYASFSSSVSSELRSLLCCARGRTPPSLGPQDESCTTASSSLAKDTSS
5-hydroxytryptamine receptor 2A, sequence (P28223 whole entry): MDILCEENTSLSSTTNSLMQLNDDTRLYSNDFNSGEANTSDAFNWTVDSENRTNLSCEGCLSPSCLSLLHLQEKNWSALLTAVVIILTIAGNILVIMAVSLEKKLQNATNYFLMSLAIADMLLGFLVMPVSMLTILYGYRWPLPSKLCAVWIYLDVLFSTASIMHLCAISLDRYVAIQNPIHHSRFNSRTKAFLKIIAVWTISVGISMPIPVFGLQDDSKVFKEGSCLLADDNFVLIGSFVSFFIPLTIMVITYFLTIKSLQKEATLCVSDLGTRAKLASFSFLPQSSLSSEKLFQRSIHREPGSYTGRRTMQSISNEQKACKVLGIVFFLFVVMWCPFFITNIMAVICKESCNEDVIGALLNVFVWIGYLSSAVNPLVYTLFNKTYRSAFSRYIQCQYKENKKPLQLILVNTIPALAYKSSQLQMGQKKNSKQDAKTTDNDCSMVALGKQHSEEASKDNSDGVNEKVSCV
Sodium-dependent serotonin transporter, sequence (P31645 whole entry): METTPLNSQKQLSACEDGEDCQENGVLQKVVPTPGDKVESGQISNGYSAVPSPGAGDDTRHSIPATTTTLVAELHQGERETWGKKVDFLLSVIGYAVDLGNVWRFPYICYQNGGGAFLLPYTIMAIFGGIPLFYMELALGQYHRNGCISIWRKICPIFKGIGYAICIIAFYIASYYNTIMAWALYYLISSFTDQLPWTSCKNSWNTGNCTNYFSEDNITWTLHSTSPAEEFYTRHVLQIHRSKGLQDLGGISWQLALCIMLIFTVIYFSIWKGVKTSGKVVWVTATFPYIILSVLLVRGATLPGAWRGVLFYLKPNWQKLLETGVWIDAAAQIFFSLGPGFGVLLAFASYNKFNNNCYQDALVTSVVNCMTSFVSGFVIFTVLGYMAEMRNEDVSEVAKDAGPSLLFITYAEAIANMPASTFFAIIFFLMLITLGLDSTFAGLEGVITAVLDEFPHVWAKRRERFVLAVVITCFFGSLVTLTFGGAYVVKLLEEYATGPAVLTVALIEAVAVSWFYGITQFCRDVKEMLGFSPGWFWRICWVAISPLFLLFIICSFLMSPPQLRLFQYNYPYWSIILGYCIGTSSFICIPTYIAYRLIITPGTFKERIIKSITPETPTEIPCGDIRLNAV

In the case of `CC(C)C(=O)OCC(=O)[C@@]12O[C@H](C3CCCCC3)O[C@@H]1C[C@H]1[C@@H]3CCC4=CC(=O)C=C[C@]4(C)[C@H]3[C@@H](O)C[C@@]12C` [CICLESONIDE], the AC50 is above 10 µM on Vasopressin V2 receptor; above 10 µM at B2 bradykinin receptor; above 10 µM in test [1]; above 10 µM in test [2]; above 30 µM at Adenosine receptor A2a; above 10 µM in [3]. Moreover, the AC50 in [4] is above 10 µM; in [5], above 10 µM; in [6], above 10 µM; in test [7], above 30 µM; in test [8] it was above 10 µM; in [9], above 10 µM. Further, the AC50 (on Histamine H1 receptor; in test [10]) was above 10 µM each time.
Turning to `CCOC(=O)[C@H](CCc1ccccc1)N[C@H]1CCCN2CCC[C@@H](C(=O)O)N2C1=O` [CILAZAPRIL], the AC50 (at Vasopressin V2 receptor; at B2 bradykinin receptor; in [1]; in test [2]; at Adenosine receptor A2a; in [3]) was above 30 µM each time. Besides, the AC50 in test [4], in [5], in [6], in test [7], in test [8] and in test [9] was above 30 µM throughout. Besides, the AC50 (on Histamine H1 receptor; in [10]) was above 30 µM throughout.
`CCOc1cc(N)c([N+](=O)[O-])cc1C(=O)NC1CCN(CC2CC=CCC2)CC1` (stereo unspecified) [CINITAPRIDE]: the AC50 (on Vasopressin V2 receptor; at B2 bradykinin receptor; in [1]; in test [2]; on Adenosine receptor A2a; in test [3]) was above 30 µM throughout. Further, the AC50 in test [4] was 14 µM; in test [5], above 30 µM; in [6] it was 16 µM; in [7], above 30 µM; in test [8] it was above 30 µM; in test [9], above 30 µM. Also, the values for the half-maximal activity concentration (AC50) (on Histamine H1 receptor; in test [10]) were 27 µM and above 30 µM, respectively.
For `CN1C(=O)CC(=O)N(c2ccccc2)c2cc(Cl)ccc21` [CLOBAZAM], the AC50 (at Vasopressin V2 receptor; on B2 bradykinin receptor; in test [1]; in test [2]; at Adenosine receptor A2a; in test [3]) was above 10 µM in each case. Moreover, the AC50 in test [4], in test [5], in [6], in test [7], in test [8] and in test [9] was above 10 µM throughout. Moreover, the half-maximal activity concentration (AC50) (at Histamine H1 receptor; in test [10]) was above 10 µM throughout.
Turning to `CCCCOc1cc(C(=O)NCCN(CC)CC)c2ccccc2n1` [DIBUCAINE], the AC50 at Vasopressin V2 receptor was above 30 µM; on B2 bradykinin receptor, above 30 µM; in test [1], above 10 µM; in [2] it was above 10 µM; at Adenosine receptor A2a, above 30 µM; in test [3] it was above 10 µM. The AC50 in [4] is above 10 µM; in test [5], above 10 µM; in test [6], above 10 µM; in [7], above 30 µM; in test [8], above 10 µM; in test [9], above 10 µM. Besides, the half-maximal activity concentration (AC50) (at Histamine H1 receptor; in test [10]) was above 10 µM throughout.
For `C#CC1(OC(N)=O)CCCCC1` [ETHINAMATE], the AC50 (on Vasopressin V2 receptor; on B2 bradykinin receptor; in test [1]; in test [2]; at Adenosine receptor A2a; in [3]) was above 10 µM in each case. For the same compound, the AC50 in test [4], in test [5], in test [6], in test [7], in test [8] and in test [9] was above 10 µM in each case. In addition, the half-maximal activity concentration (AC50) (on Histamine H1 receptor; in test [10]) was above 10 µM each time.
In the case of `CCC1(C2=CCCCCC2)C(=O)NC(=O)NC1=O` [HEPTABARBITAL], the half-maximal activity concentration (AC50) (at Vasopressin V2 receptor; on B2 bradykinin receptor; in test [1]; in test [2]; on Adenosine receptor A2a; in test [3]) was above 10 µM each time. Besides, the AC50 in test [4], in [5], in [6], in test [7], in test [8] and in [9] was above 10 µM each time. Also, the AC50 (at Histamine H1 receptor; in test [10]) was above 10 µM throughout.
For the compound `CCCCCN(C)CCC(O)(P(=O)(O)O)P(=O)(O)O` [IBANDRONIC ACID], the concentration at half-maximal activity (AC50) (at Vasopressin V2 receptor; on B2 bradykinin receptor; in [1]; in test [2]; at Adenosine receptor A2a; in test [3]) was above 30 µM each time. Besides, the AC50 in test [4], in test [5], in test [6], in test [7], in [8] and in test [9] was above 30 µM in each case. Also, the AC50 (at Histamine H1 receptor; in [10]) was above 30 µM in each case.
`C1=Cc2cccc(OCC3CNCCO3)c2C1` (stereo unspecified) [INDELOXAZINE]: the concentration at half-maximal activity (AC50) (at Vasopressin V2 receptor; on B2 bradykinin receptor; in test [1]; in [2]; on Adenosine receptor A2a; in test [3]) was above 30 µM each time. In addition, the AC50 in [4] was 0.047 µM; in [5], above 30 µM; in test [6], above 30 µM; in test [7] it was above 30 µM; in [8] it was above 30 µM; in [9], above 30 µM. The values for the AC50 (at Histamine H1 receptor; in test [10]) were 17 µM and above 30 µM, respectively.
